Assay results from US10597388B2, “Pyridazinone herbicides” (FMC CORPORATION, priority 2014, dated 2020).

Assays:
Assay in all cases: Test D controlled growth environment herbicide test, pre- and postemergence
Assay type in all cases: in vivo
[1] = test system: barley, winter (winter barley, Hordeum vulgare)
Outline: (§1)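 Species sown in silt loam and sprayed preemergence, or grown in peat-based medium to 2–18 cm (1- to 4-leaf stage) and sprayed postemergence, with compounds in non-phytotoxic solvent plus surfactant. Visual injury scored versus controls after 14–21 d in a controlled environment, 0 (no effect) to 100 (complete control).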

[2] = test system: oat, wild (wild oat, Avena fatua)
Outline: as §1

[3] = test system: Russian thistle (Salsola kali)
Outline: as §1

[4] = test system: field poppy (Papaver rhoeas)
Outline: as §1

[5] = test system: radish, wild (wild radish, Raphanus raphanistrum)
Outline: as §1

[6] = test system: pigweed (Amaranthus retroflexus)
Outline: as §1

[7] = test system: blackgrass (Alopecurus myosuroides)
Outline: as §1

[8] = test system: bluegrass (annual bluegrass, Poa annua)
Outline: as §1

[9] = test system: speedwell (bird's-eye speedwell, Veronica persica)
Outline: as §1

[10] = test system: wheat, spring (spring wheat, Triticum aestivum)
Outline: as §1

[11] = test system: barley, spring (spring barley, Hordeum vulgare)
Outline: as §1

kochia (Kochia scoparia) = test system: kochia (Kochia scoparia)
Outline: as §1

[12] = test system: mustard, wild (wild mustard, Sinapis arvensis)
Outline: as §1

[13] = Postemergence, 31 g ai/ha, scale 0 to 100 (0 no effect, 100 complete control)
[14] = Postemergence, 125 g ai/ha, visual rating on scale 0 (no effect) to 100 (complete control), 14 to 21 d
[15] = Postemergence, 250 g ai/ha, scale 0 to 100 (0 no effect, 100 complete control)
[16] = Preemergence, 62 g ai/ha, scale 0 to 100 (0 no effect, 100 complete control)
[17] = Preemergence, 125 g ai/ha, scale 0 to 100 (0 no effect, 100 complete control)
[18] = Preemergence, 250 g ai/ha, scale 0 to 100, 0 no effect, 100 complete control
[19] = postemergence, 62 g ai/ha, scale 0 to 100, 0 no effect, 100 complete control

## CCCC(=O)Oc1c(C)nn(C)c(=O)c1-c1c(C)sc2ccc(C)cc12 [Compound 105]
[1]; [13]
  Barley, Winter plant response rating: 0
[1]; [14]
  Plant response rating, Barley, Winter: 10
[1]; [15]
  Plant response rating, Barley, Winter: 15
[1]; Preemergence, 31 g ai/ha
  Plant response rating (scale of 0 to 100), Barley, Winter: 5
[1]; [16]
  Plant response rating, Barley, Winter: 10
[1]; [17]
  Plant response rating, Barley, Winter: 10
[1]; [18]
  Plant response rating, Barley, Winter: 25
[1]; [19]
  Plant response rating, Barley, Winter: 10
[2]; [13]
  Oat, Wild plant response rating: 80
[2]; [14]
  Plant response rating, Oat, Wild: 95
[2]; [15]
  Plant response rating, Oat, Wild: 100
[2]; Preemergence, 31 g ai/ha
  Plant response rating (scale of 0 to 100), Oat, Wild: 80
[2]; Preemergence, 62 g ai/ha
  Plant response rating (scale of 0 to 100), Oat, Wild: 80
[2]; [17]
  Plant response rating, Oat, Wild: 85
[2]; [18]
  Plant response rating, Oat, Wild: 100
[2]; [19]
  Plant response rating, Oat, Wild: 85
[3]; [13]
  Russian Thistle plant response rating: 40
[3]; [14]
  Plant response rating, Russian Thistle: 50
[3]; [15]
  Plant response rating, Russian Thistle: 50
[3]; Preemergence, 31 g ai/ha
  Plant response rating (scale of 0 to 100), Russian Thistle: 0
[3]; Preemergence, 62 g ai/ha
  Plant response rating (scale of 0 to 100), Russian Thistle: 60
[3]; [17]
  Plant response rating, Russian Thistle: 70
[3]; [18]
  Plant response rating, Russian Thistle: 90
[3]; [19]
  Plant response rating, Russian Thistle: 45
[4]; [13]
  Field Poppy plant response rating: 70
[4]; [14]
  Plant response rating, Field Poppy: 80
[4]; [15]
  Plant response rating, Field Poppy: 80
[4]; Preemergence, 31 g ai/ha
  Plant response rating (scale of 0 to 100), Field Poppy: 100
[4]; Preemergence, 62 g ai/ha
  Plant response rating (scale of 0 to 100), Field Poppy: 100
[4]; [17]
  Plant response rating, Field Poppy: 100
[4]; [18]
  Plant response rating, Field Poppy: 100
[4]; [19]
  Plant response rating, Field Poppy: 75
[5]; [13]
  Radish, Wild plant response rating: 5
[5]; [14]
  Plant response rating, Radish, Wild: 20
[5]; [15]
  Plant response rating, Radish, Wild: 70
[5]; Preemergence, 62 g ai/ha
  Plant response rating (scale of 0 to 100), Radish, Wild: 15
[5]; [17]
  Plant response rating, Radish, Wild: 35
[5]; [18]
  Plant response rating, Radish, Wild: 55
[5]; [19]
  Plant response rating, Radish, Wild: 15
[6]; [13]
  Pigweed plant response rating: 85
[6]; [14]
  Plant response rating, Pigweed: 100
[6]; [15]
  Plant response rating, Pigweed: 100
[6]; Preemergence, 31 g ai/ha
  Plant response rating (scale of 0 to 100), Pigweed: 100
[6]; Preemergence, 62 g ai/ha
  Plant response rating (scale of 0 to 100), Pigweed: 100
[6]; [17]
  Plant response rating, Pigweed: 100
[6]; [18]
  Plant response rating, Pigweed: 100
[6]; [19]
  Plant response rating, Pigweed: 100
[7]; [13]
  Blackgrass plant response rating: 15
[7]; [14]
  Plant response rating, Blackgrass: 65
[7]; [15]
  Plant response rating, Blackgrass: 65
[7]; Preemergence, 31 g ai/ha
  Plant response rating (scale of 0 to 100), Blackgrass: 35
[7]; [16]
  Plant response rating, Blackgrass: 50
[7]; [17]
  Plant response rating, Blackgrass: 60
[7]; [18]
  Plant response rating, Blackgrass: 75
[7]; [19]
  Plant response rating, Blackgrass: 25
[8]; [13]
  Bluegrass plant response rating: 10
[8]; [14]
  Plant response rating, Bluegrass: 20
[8]; [15]
  Plant response rating, Bluegrass: 25
[8]; Preemergence, 31 g ai/ha
  Plant response rating (scale of 0 to 100), Bluegrass: 25
[8]; [16]
  Plant response rating, Bluegrass: 30
[8]; [17]
  Plant response rating, Bluegrass: 60
[8]; [18]
  Plant response rating, Bluegrass: 75
[8]; [19]
  Plant response rating, Bluegrass: 10
[9]; [13]
  Speedwell plant response rating: 45
[9]; [14]
  Plant response rating, Speedwell: 65
[9]; [15]
  Plant response rating, Speedwell: 75
[9]; [19]
  Plant response rating, Speedwell: 50
[10]; [13]
  Wheat, Spring plant response rating: 0
[10]; [14]
  Plant response rating, Wheat, Spring: 20
[10]; [15]
  Plant response rating, Wheat, Spring: 25
[10]; Preemergence, 31 g ai/ha
  Plant response rating (scale of 0 to 100), Wheat, Spring: 0
[10]; Preemergence, 62 g ai/ha
  Plant response rating (scale of 0 to 100), Wheat, Spring: 0
[10]; [17]
  Plant response rating, Wheat, Spring: 0
[10]; [18]
  Plant response rating, Wheat, Spring: 40
[10]; [19]
  Plant response rating, Wheat, Spring: 10
[11]; [13]
  Barley, Spring plant response rating: 0
[11]; [14]
  Plant response rating, Barley, Spring: 10
[11]; [15]
  Plant response rating, Barley, Spring: 15
[11]; Preemergence, 31 g ai/ha
  Plant response rating (scale of 0 to 100), Barley, Spring: 0
[11]; [16]
  Plant response rating, Barley, Spring: 0
[11]; [17]
  Plant response rating, Barley, Spring: 0
[11]; [18]
  Plant response rating, Barley, Spring: 20
[11]; [19]
  Plant response rating, Barley, Spring: 5
Kochia (Kochia scoparia); [13]
  Kochia plant response rating: 85
Kochia (Kochia scoparia); [14]
  Plant response rating, Kochia: 95
Kochia (Kochia scoparia); [15]
  Plant response rating, Kochia: 100
Kochia (Kochia scoparia); Preemergence, 31 g ai/ha
  Plant response rating (scale of 0 to 100), Kochia: 10
Kochia (Kochia scoparia); Preemergence, 62 g ai/ha
  Plant response rating (scale of 0 to 100), Kochia: 50
Kochia (Kochia scoparia); [17]
  Plant response rating, Kochia: 95
Kochia (Kochia scoparia); [18]
  Plant response rating, Kochia: 100
Kochia (Kochia scoparia); [19]
  Plant response rating, Kochia: 95
[12]; [13]
  Mustard, Wild plant response rating: 5
[12]; [14]
  Plant response rating, Mustard, Wild: 40
[12]; [15]
  Plant response rating, Mustard, Wild: 75
[12]; Preemergence, 31 g ai/ha
  Plant response rating (scale of 0 to 100), Mustard, Wild: 10
[12]; Preemergence, 62 g ai/ha
  Plant response rating (scale of 0 to 100), Mustard, Wild: 0
[12]; [17]
  Plant response rating, Mustard, Wild: 0
[12]; [18]
  Plant response rating, Mustard, Wild: 20
[12]; [19]
  Plant response rating, Mustard, Wild: 25
